According to patent US20260159485A1, “ANDROGEN RECEPTOR DEGRADERS FOR THE TREATMENT OF CASTRATION-RESISTANT PROSTATE CANCER AND USE THEREOF” (AUTOTAC INC., priority 2021, published 2026):

Experiments:
[1] = target: T1, androgen receptor (Homo sapiens, UniProt P10275); assay: Degradation of androgen receptor through autophagy; assay type: cell-based; details: FIG. 2a to 2c
T1 construct: endogenous in cells
T1 sequence (P10275 1-920): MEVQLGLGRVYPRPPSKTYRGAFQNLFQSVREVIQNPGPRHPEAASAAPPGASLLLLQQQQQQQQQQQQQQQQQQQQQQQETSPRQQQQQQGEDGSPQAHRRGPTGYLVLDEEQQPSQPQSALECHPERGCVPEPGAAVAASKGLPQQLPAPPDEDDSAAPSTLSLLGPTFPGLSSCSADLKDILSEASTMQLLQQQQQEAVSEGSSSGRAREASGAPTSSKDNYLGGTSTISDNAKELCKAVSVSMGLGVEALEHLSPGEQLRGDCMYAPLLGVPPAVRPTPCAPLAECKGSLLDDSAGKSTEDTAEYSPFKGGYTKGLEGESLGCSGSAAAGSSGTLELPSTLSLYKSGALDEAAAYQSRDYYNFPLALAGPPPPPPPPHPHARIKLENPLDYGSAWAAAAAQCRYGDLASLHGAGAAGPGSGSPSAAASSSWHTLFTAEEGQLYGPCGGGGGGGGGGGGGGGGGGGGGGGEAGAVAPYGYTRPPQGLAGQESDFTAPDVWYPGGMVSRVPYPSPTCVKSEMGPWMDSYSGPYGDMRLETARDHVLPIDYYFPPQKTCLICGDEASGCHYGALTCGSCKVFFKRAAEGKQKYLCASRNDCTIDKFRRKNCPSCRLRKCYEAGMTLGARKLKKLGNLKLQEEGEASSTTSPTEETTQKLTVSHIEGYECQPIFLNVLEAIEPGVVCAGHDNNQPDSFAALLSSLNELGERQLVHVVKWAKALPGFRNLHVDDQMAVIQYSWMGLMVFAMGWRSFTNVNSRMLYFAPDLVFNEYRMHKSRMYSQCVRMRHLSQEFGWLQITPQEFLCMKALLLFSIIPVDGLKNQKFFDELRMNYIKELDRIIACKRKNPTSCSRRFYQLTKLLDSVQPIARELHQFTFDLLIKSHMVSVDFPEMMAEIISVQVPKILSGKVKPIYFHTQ
Procedure: (§1) Hereinafter, experimental examples to show the effects of the disclosed compounds are described. Unless otherwise described, the following experiments were conducted with conventional materials and methos well known in the an for measuring a similar function.
Experimental Example 2. Anticancer Efficacy Via Degradation of Androgen Receptor

[2] = tested on: androgen-responsive and unresponsive cell; assay: Increase of the autophagy flux in androgen-responsive and unresponsive cell; assay type: cell-based; details: FIG. 1; for increase of autophagy at low concentration: 0.01 μM
Procedure: as §1
Experimental Example 1. Increase of the Autophagy Flux in Androgen-Responsive and Unresponsive Cell by AR Inhibitors of the Present Invention

[3] = tested on: AR target genes; assay: Down-regulation of AR signaling pathway: expression of AR target genes; assay type: cell-based; details: FIG. 4
Procedure: as §1
3. Down-Regulation of AR Signaling Pathway

[4] = target: T1, androgen receptor; assay: Inactivation of AR: transcriptional activity of androgen receptor; assay type: cell-based; details: by forming aggregation with p62 in the cytosol; FIG. 3
Procedure: as §1

[5] = tested on: androgen-responsive prostate cancer cell; assay: Colony formation of prostate cancer cell; assay type: cell-based; details: FIG. 6
Procedure: as §1
(§2) Experimental Example 3. Compound B Inhibits Proliferation of Androgen-Responsive Prostate Cancer Cell

[6] = target: T2, androgen receptor (Homo sapiens, UniProt P10275, T878A); assay: Degradation of androgen receptor in tumor of mice; assay type: in vivo; details: LNCaP xenograft tumor; FIG. 8e
T2 construct: from tissue; host or cells: LNCaP xenograft tumour in mice
Excerpt: 2. Degradation of Androgen Receptor

[7] = tested on: androgen-responsive prostate cancer cell; assay: Cell proliferation / cell cycle of prostate cancer cell; assay type: cell-based; details: blocking the cell cycle in G1 phase; FIG. 7
Procedure: as §1, §2

[8] = tested on: AR splice variant 7 (AR-V7); assay: Degradation of AR splice variant 7 in enzalutamide resistant cell; assay type: cell-based
Excerpt: (§3) Experimental Example 5. Xtandi-AUTOTAC Degrades AR Splice Variant 7, Predictive Biomarker of Metastatic Castration-Resistant Prostate Cancer Degradation of AR Variant (FIG. 9a to FIG. 9d)

[9] = target: T3, wild type AR (Homo sapiens, UniProt P10275); assay: Degradation of wild type AR in enzalutamide resistant cell; assay type: cell-based; details: FIG. 9a
T3 construct: endogenous in cells
T3 sequence (P10275 1-920): T1 sequence (P10275 1-920)
Excerpt: as §3

[10] = tested on: AR-V7-expressing 22Rv1 xenograft; assay: Tumor growth in AR-V7-expressing 22Rv1 xenograft model; assay type: in vivo; details: SCID mice, intraperitoneally 5 times per week, 20 mg/kg; FIG. 10
Procedure: 22Rv1 cells (4×10^6 cells/animal) were injected subcutaneously into 10-week-old male SCID mice to generate xenograft. The mice bearing tumor were randomly divided into vehicle or AUTOTAC treatment groups (4 or 5 mice per group), Compound B was injected via intraperitoneally 5 times per week at a dose of 20 mg/kg body weight, whereas the vehicle group received an equal volume of PBS containing 5% DMSO and 10% solutol. (FIG. 10)

[11] = tested on: LNCaP xenograft tumors; assay: Growth of LNCaP xenograft tumors in mice; assay type: in vivo; details: FIG. 8a to 8d
Excerpt: Experimental Example 4. […] Inhibition of Tumor Growth

T2 sequence (P10275 whole entry T878A): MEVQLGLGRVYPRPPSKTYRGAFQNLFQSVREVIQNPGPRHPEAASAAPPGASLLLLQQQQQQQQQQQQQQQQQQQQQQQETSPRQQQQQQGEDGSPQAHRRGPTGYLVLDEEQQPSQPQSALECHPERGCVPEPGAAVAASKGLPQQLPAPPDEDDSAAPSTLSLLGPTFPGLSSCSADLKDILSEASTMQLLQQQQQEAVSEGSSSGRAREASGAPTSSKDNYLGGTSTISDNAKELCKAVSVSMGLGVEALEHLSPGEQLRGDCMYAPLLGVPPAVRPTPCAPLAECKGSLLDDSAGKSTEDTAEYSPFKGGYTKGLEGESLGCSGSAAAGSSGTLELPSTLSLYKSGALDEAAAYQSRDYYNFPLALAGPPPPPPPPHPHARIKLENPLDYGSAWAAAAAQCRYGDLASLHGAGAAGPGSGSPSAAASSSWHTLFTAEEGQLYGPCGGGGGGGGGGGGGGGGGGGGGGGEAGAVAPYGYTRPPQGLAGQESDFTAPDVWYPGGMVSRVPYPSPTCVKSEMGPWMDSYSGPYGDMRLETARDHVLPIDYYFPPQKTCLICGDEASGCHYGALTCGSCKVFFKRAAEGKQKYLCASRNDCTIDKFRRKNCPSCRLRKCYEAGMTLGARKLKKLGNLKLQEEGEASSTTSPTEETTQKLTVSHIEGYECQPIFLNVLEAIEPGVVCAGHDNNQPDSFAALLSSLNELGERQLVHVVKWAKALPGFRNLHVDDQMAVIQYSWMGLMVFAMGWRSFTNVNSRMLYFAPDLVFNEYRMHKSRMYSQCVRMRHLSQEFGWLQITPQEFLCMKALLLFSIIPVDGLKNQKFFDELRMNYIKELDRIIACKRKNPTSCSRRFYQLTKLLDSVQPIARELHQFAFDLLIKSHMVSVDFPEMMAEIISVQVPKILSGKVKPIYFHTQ
T2 sequence (Q13501 whole entry partner): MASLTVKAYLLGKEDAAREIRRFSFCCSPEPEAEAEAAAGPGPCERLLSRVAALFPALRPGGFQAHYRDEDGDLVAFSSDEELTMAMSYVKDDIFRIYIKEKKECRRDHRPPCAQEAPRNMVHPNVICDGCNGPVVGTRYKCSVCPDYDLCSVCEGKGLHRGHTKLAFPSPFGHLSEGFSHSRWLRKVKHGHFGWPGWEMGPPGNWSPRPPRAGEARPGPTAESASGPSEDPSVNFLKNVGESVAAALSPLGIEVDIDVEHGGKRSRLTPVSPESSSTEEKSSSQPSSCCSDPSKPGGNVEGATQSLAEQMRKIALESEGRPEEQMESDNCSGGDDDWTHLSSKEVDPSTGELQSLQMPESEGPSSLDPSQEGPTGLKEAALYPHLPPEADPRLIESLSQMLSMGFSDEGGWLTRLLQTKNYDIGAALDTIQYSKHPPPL

Row | SMILES | degradation of androgen receptor through autophagy [1] | increase of autophagy at low concentration [2] | further results
1 | CC1(C)C(=O)N(c2ccc(C#N)c(C(F)(F)F)c2)C(=S)N1c1ccc(C(=O)NCCCCCCOCCCCCNC[C@@H](O)COc2cccc(OCc3ccc(F)cc3)c2)c(F)c1 [Compound G, (R)-4-(3-(4-cyano-3-(trifluoromethyl)phenyl)-5,5-dimethyl-4-oxo-2-thioxoimidazolidin-1-yl)-2-fluoro-N-(6-((5-((3-(3-((4-fluorobenzyl)oxy)phenoxy)-2-hydroxypropyl)amino)pentyl)oxy)hexyl)benzamide] | efficiently degrade androgen receptor | – | –
2 | CC1(C)C(=O)N(c2ccc(C#N)c(C(F)(F)F)c2)C(=S)N1c1ccc(C(=O)NCCOCCOCCOCCOCCOCCOCCNC[C@@H](O)COc2ccc(OCc3ccc(F)cc3)c(OCc3ccc(F)cc3)c2)c(F)c1 [Compound C, (R)-N-(24-(3,4-bis((4-fluorobenzyl)oxy)phenoxy)-23-hydroxy-3,6,9,12,15,18-hexaoxa-21-azatetracosyl)-4-(3-(4-cyano-3-(trifluoromethyl)phenyl)-5,5-dimethyl-4-oxo-2-thioxoimidazolidin-1-yl)-2-fluorobenzamide] | efficiently degrade androgen receptor | efficiently increase autophagy | –
3 | O[C@H](CNCCOCCOCCOCCOCCN1CCN(c2nc(-n3cc(Br)nc3Br)cs2)CC1)COc1ccc(OCc2ccc(F)cc2)c(OCc2ccc(F)cc2)c1 [Compound D, (R)-18-(3,4-bis((4-fluorobenzyl)oxy)phenoxy)-1-(4-(4-(2,4-dibromo-1H-imidazol-1-yl)thiazol-2-yl)piperazin-1-yl)-3,6,9,12-tetraoxa-15-azaoctadecan-17-ol] | efficiently degrade androgen receptor | – | –
4 | CC1(C)C(=O)N(c2ccc(C#N)c(C(F)(F)F)c2)C(=S)N1c1ccc(C(=O)NCCOCCOCCNC[C@@H](O)COc2ccc(OCc3ccc(F)cc3)c(OCc3ccc(F)cc3)c2)c(F)c1 [Compound A, (R)—N-(2-(2-(2-((3-(3,4-bis((4-fluorobenzyl)oxy)phenoxy)-2-hydroxypropyl)amino)ethoxy)ethoxy)ethyl)-4-(3-(4-cyano-3-(trifluoromethyl)phenyl)-5,5-dimethyl-4-oxo-2-thioxoimidazolidin-1-yl)-2-fluorobenzamide] | efficiently degrade androgen receptor | efficiently increase autophagy | –
5 | CC1(C)C(=O)N(c2ccc(C#N)c(C(F)(F)F)c2)C(=S)N1c1ccc(C(=O)NCCOCCOCCOCCOCCNC[C@@H](O)COc2ccc(OCc3ccc(F)cc3)c(OCc3ccc(F)cc3)c2)c(F)c1 [Compound B, (R)—N-(18-(3,4-bis((4-fluorobenzyl)oxy)phenoxy)-17-hydroxy-3,6,9,12-tetraoxa-15-azaoctadecyl)-4-(3-(4-cyano-3-(trifluoromethyl)phenyl)-5,5-dimethyl-4-oxo-2-thioxoimidazolidin-1-yl)-2-fluorobenzamide] | efficiently degrade androgen receptor | efficiently increase autophagy | expression of AR target genes [3]: down-regulates expression of AR target genes; transcriptional activity of androgen receptor [4]: inhibits transcriptional activity of androgen receptor; colony formation of prostate cancer cell [5]: prevents colony formation; degradation of androgen receptor in tumor of mice [6]: degrades androgen receptor; increase of autophagy at early time point ([2]; 1 h): efficiently increases autophagy; cell proliferation / cell cycle [7]: inhibits cell proliferation by blocking the cell cycle in G1 phase; degradation of AR-V7 by sequestering with wild type AR ([8]; FIG. 9a to 9d): can degrade AR-V7 by sequestering with wild type AR; degradation of AR-V7 ([8]; enzalutamide resistant cell, FIG. 9a): degrades; degradation of wild type AR [9]: degrades; tumor growth in AR-V7-expressing 22Rv1 xenograft model [10]: Inhibits Tumor Growth; tumor growth in Xenograft mouse model [11]: efficiently inhibits tumor growth
6 | CC1(C)C(=O)N(c2ccc(C#N)c(C(F)(F)F)c2)C(=S)N1c1ccc(OCCCCCCCC(=O)NCCOCCOCCNCc2cccc(OCc3ccc(F)cc3)c2)cc1 [Compound H, 8-(4-(3-(4-cyano-3-(trifluoromethyl)phenyl)-5,5-dimethyl-4-oxo-2-thioxoimidazolidin-1-yl)phenoxy)-N-(2-(2-(2-((3-((4-fluorobenzyl)oxy)benzyl)amino)ethoxy)ethoxy)ethyl)octanamide] | efficiently degrade androgen receptor | – | –
7 | CC1(C)C(=O)N(c2ccc(C#N)c(C(F)(F)F)c2)C(=S)N1c1ccc(C(=O)NCCOCCOCCOCCOCCNC[C@@H](O)COc2cccc(OCc3ccc(F)cc3)c2)c(F)c1 [Compound F, (R)-4-(3-(4-cyano-3-(trifluoromethyl)phenyl)-5,5-dimethyl-4-oxo-2-thioxoimidazolidin-1-yl)-2-fluoro-N-(18-(3-((4-fluorobenzyl)oxy)phenoxy)-17-hydroxy-3,6,9,12-tetraoxa-15-azaoctadecyl)benzamide] | efficiently degrade androgen receptor | – | –
8 | CC1(C)C(=O)N(c2ccc(C#N)c(C(F)(F)F)c2)C(=S)N1c1ccc(OCCOCCOCCOCCOCCOCCNCc2cccc(OCc3ccc(F)cc3)c2)cc1 [Compound I, 4-(3-(4-((1-(3-((4-fluorobenzyl)oxy)phenyl)-5,8,11,14,17-pentaoxa-2-azanonadecan-19-yl)oxy)phenyl)-4,4-dimethyl-5-oxo-2-thioxoimidazolidin-1-yl)-2-(trifluoromethyl)benzonitrile] | efficiently degrade androgen receptor | – | –
9 | O=C(COCCOCCOCCOCCNC[C@@H](O)COc1ccc(OCc2ccc(F)cc2)c(OCc2ccc(F)cc2)c1)N1CCN(c2nc(-n3cc(Br)nc3Br)cs2)CC1 [Compound E, (R)-18-(3,4-bis((4-fluorobenzyl)oxy)phenoxy)-1-(4-(4-(2,4-dibromo-1H-imidazol-1-yl)thiazol-2-yl)piperazin-1-yl)-17-hydroxy-3,6,9,12-tetraoxa-15-azaoctadecan-1-one] | efficiently degrade androgen receptor | – | –
